# System: Huntingtin protein (HTT)
# Experiment: Endogenous Huntingtin Protein Assay (MSD electrochemiluminescence ELISA; MW1 or MAB2166 capture, #5656S detection)
# Type: cell-based, human
# Protocol: The Endogenous Huntingtin Protein assay used in Example 2 was developed using the Best Pair antibodies identified in Table 2, providing highly sensitive, high-throughput detection assays for polyglutamine-expanded (mHTT) and total human HTT in multiple cell systems. The platform used for the assay is the ELISA-based Meso Scale Discovery (MSD) electrochemiluminescence assay platform.
# Meso Scale Discovery (MSD) 96-well or 384-well plates were coated overnight at 4° C. with MW1 (expanded polyglutamine) or MAB2166 monoclonal antibody (for capture) at a concentration of 1 μg/mL in PBS (30 μL per well). Plates were then washed three times with 300 μL wash buffer (0.05% Tween-20 in PBS) and blocked (100 μL blocking buffer; 5% BSA in PBS) for 4-5 hours at room temperature with rotational shaking and then washed three times with wash buffer.
# Samples (25 μL) were transferred to the antibody-coated MSD plate and incubated overnight at 4° C. After removal of the lysates, the plate was washed three times with wash buffer, and 25 μL of #5656S (Cell signaling; rabbit monoclonal) secondary antibody (diluted to 0.25 μg/mL in 0.05% Tween-20 in blocking buffer) was added to each well and incubated with shaking for 1 Hour at room temperature. Following incubation with the secondary antibody, the wells were rinsed with wash buffer after which 25 μL of goat anti-rabbit SULFO TAG secondary detection antibody (required aspect of the MSD system) (diluted to 0.25 μg/mL in 0.05% Tween-20 in blocking buffer) was added to each well and incubated with shaking for 1 hour at room temperature. After rinsing three times with wash buffer, 150 μL of read buffer T with surfactant (MSD) were added to each empty well, and the plate was imaged on a SI 6000 imager (MSD) according to manufacturers' instructions provided for 96- or 384-well plates.
row,SMILES,IC50 [nM]
1,"CC1(C)CC(Oc2ccc(-c3ccc(-c4ccnc(O)c4)cc3O)nn2)CC(C)(C)N1 [Cpd 176, 4-(3-hydroxy-4-(6-((2,2,6,6-tetramethylpiperidin-4-yl)oxy)pyridazin-3-yl)phenyl)pyridin-2-ol]",≤ 100
2,CN(c1nnc(-c2c(F)cc(-c3cn[nH]c3)cc2F)s1)C1CC(C)(C)NC(C)(C)C1 [Cpd 352],100 to 500
3,"CN(c1ccc(-c2cc3ccncc3cc2O)nn1)C1CC(C)(C)NC(C)(C)C1 [Cpd 218, 6-(6-(methyl(2,2,6,6-tetramethylpiperidin-4-yl)amino)pyridazin-3-yl)isoquinolin-7-ol]",≤ 100
4,"CN(c1ccc(-c2ccc(-c3cnn(C)c3)cc2O)nn1)C1CC(C)(C)NC(C)(C)C1 [Cpd 51, 2-(6-(methyl(2,2,6,6-tetramethylpiperidin-4-yl)amino)pyridazin-3-yl)-5-(1-methyl-1H-pyrazol-4-yl)phenol]",≤ 100
5,"Cn1cc2cc(-c3ccc(OC4CC(C)(C)NC(C)(C)C4)nn3)ccc2n1 [Cpd 443, 2-methyl-5-{6-[(2,2,6,6-tetramethylpiperidin-4-yl)oxy]pyridazin-3-yl}-2H-indazole]",3000 to 9000

# Source: patent US11638706B2, “Methods for treating Huntington's disease” (PTC Therapeutics, Inc., priority 2015, dated 2023)
